From ChEMBL document CHEMBL3808387, “Discovery of IWP-051, a Novel Orally Bioavailable sGC Stimulator with Once-Daily Dosing Potential in Humans” (ACS Med Chem Lett, 2016)

Tested on: not listed separately
Test: Intrinsic clearance in Sprague-Dawley rat liver microsomes assessed per mg of protein at 2 uM after 10 to 30 mins by LC/MS/MS analysis in presence of NADPH
Assay type: ADME
Details: read-out: CLH

SMILES | microsomal CLint at 2 µM
N#Cc1cc(-c2ncc(F)c(=O)[nH]2)nn1Cc1ccccc1F | 9 µL/min/mg
Oc1nc(-c2cc(C3CC3)n(Cc3ccccc3F)n2)ncc1F | 10 µL/min/mg
Oc1nc(-c2cc(-c3cocn3)n(Cc3ccccc3F)n2)ncc1F | 9 µL/min/mg
CN(c1ccccc1)S(=O)(=O)c1cnc(-c2cc(-c3ccon3)n(Cc3ccccc3F)n2)nc1O | 58 µL/min/mg
O=C(Nc1cnc(-c2cc(-c3ccon3)n(Cc3ccccc3F)n2)nc1O)c1ccccc1 | 26 µL/min/mg
Cc1cccc(Cn2nc(-c3ncc(F)c(O)n3)cc2-c2ccon2)c1F | 79 µL/min/mg
Oc1nc(-c2cc(-c3ncco3)n(Cc3ccccc3F)n2)ncc1F | 68 µL/min/mg
O=c1[nH]c(-c2cc(-c3ccon3)n(Cc3cccc(Cl)c3F)n2)ncc1F | 2 µL/min/mg
Oc1nc(-c2cc(-c3ncon3)n(Cc3ccccc3F)n2)ncc1F | 4 µL/min/mg

Results, then the compound that gave them:

microsomal CLint at 2 µM | SMILES
10 µL/min/mg | Oc1nc(-c2cc(-c3ccon3)n(Cc3ccccc3)n2)ncc1F
26 µL/min/mg | Nc1ccnc(-c2cc(-c3ccon3)n(Cc3ccccc3F)n2)n1
15 µL/min/mg | Oc1ccnc(-c2cc(-c3ccon3)n(Cc3ccccc3F)n2)n1
8 µL/min/mg | CC(C)(O)c1cnc(-c2cc(-c3ccon3)n(Cc3ccccc3F)n2)nc1O
14 µL/min/mg | N#Cc1cnc(-c2cc(-c3ccon3)n(Cc3ccccc3F)n2)nc1O
13 µL/min/mg | CS(=O)(=O)c1cnc(-c2cc(-c3ccon3)n(Cc3ccccc3F)n2)nc1O

Target: T1, Kappa-type opioid receptor (Homo sapiens, UniProt P41145)
T1 sequence (P41145 whole entry): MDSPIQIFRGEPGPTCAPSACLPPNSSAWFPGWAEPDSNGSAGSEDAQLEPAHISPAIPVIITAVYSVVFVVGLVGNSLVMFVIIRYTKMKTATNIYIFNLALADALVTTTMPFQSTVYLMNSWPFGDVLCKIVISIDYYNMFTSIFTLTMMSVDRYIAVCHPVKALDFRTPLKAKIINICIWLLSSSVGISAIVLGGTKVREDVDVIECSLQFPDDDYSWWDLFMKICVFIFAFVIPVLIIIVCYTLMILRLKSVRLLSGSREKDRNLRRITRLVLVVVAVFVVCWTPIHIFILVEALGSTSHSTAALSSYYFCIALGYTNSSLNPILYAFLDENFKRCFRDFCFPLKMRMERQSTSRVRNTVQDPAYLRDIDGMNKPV
Test: Agonist activity at KOP receptor (unknown origin)
Details: not given

EC50 | SMILES
1500 nM | Nc1ccnc(-c2cc(-c3ccon3)n(Cc3ccccc3F)n2)n1

Target: Soluble guanylate cyclase (Homo sapiens) (UniProt Q02153+O75343+P33402+Q02108)
Test: Activation of SGC in HEK293 cells assessed as cGMP production at 30 uM after 20 mins by LC-MS/MS analysis in presence of NO-donor DETA-NONOate
Assay type: cell-based
Details: not given

SMILES | Emax
Oc1nc(-c2cc(C3CC3)n(Cc3ccccc3F)n2)ncc1F | 26%
Oc1nc(-c2cc(-c3cocn3)n(Cc3ccccc3F)n2)ncc1F | 78%
O=C(Nc1cnc(-c2cc(-c3ccon3)n(Cc3ccccc3F)n2)nc1O)c1ccccc1 | 53%
Oc1nc(-c2cc(-c3ncon3)n(Cc3ccccc3F)n2)ncc1F | 68%
N#Cc1cc(-c2ncc(F)c(O)n2)nn1Cc1ccccc1F | 73%

The next lines start with the values.

Emax | SMILES
92% | Oc1ccnc(-c2cc(-c3ccon3)n(Cc3ccccc3F)n2)n1
40% | CC(C)(O)c1cnc(-c2cc(-c3ccon3)n(Cc3ccccc3F)n2)nc1O

Target: Soluble guanylate cyclase (Homo sapiens, UniProt O75343+P33402+Q02108+Q02153)
Sequence (Q02153 whole entry): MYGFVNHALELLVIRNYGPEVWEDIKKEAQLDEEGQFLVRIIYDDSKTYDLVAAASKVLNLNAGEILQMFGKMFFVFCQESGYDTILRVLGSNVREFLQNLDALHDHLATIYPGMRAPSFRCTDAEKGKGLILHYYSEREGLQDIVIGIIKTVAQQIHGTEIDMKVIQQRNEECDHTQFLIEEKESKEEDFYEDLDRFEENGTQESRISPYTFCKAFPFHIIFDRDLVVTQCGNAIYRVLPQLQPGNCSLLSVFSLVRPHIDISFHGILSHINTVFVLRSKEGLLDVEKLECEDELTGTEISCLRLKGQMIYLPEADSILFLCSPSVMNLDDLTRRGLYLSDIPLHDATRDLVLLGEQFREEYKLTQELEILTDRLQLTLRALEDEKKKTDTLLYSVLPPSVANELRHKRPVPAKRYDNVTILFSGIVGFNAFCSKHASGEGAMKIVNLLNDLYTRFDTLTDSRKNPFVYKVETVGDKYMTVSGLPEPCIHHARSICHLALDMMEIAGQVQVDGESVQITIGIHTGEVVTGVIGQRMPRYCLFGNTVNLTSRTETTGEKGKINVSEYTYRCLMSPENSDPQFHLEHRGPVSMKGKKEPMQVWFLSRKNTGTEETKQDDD
Sequence (O75343 whole entry): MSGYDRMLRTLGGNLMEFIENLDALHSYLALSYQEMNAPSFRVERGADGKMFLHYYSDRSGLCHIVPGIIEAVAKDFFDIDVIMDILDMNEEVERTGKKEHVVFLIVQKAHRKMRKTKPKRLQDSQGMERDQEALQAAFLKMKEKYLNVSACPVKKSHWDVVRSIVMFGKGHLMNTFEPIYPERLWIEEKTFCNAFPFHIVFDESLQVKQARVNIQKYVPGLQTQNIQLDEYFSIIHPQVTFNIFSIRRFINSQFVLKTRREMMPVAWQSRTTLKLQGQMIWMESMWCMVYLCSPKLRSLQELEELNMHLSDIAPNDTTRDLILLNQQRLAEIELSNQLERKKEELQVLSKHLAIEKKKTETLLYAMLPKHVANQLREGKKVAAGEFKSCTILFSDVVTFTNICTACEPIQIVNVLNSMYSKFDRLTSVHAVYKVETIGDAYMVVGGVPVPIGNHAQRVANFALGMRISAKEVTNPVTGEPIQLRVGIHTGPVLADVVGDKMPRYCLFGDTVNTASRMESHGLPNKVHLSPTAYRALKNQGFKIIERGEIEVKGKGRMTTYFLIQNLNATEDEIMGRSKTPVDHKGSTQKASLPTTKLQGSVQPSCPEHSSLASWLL
Sequence (P33402 whole entry): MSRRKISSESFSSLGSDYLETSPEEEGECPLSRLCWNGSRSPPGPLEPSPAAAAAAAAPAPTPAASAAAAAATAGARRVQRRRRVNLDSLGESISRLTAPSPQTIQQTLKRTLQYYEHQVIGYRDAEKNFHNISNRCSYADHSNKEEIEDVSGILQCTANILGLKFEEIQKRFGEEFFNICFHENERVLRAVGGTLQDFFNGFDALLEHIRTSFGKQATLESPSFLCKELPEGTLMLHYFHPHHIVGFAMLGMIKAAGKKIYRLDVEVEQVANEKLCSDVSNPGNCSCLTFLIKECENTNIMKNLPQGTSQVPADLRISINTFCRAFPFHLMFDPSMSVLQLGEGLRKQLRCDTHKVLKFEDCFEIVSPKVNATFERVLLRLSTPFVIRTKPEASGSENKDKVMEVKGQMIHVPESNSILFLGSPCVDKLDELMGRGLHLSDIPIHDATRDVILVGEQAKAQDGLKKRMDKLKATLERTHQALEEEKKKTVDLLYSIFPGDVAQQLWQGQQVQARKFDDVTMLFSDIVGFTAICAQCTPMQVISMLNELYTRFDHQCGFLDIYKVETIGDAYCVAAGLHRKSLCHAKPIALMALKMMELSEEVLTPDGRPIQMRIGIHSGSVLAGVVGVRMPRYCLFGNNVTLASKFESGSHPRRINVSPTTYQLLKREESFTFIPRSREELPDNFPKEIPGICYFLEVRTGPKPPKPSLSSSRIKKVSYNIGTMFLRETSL
Sequence (Q02108 whole entry): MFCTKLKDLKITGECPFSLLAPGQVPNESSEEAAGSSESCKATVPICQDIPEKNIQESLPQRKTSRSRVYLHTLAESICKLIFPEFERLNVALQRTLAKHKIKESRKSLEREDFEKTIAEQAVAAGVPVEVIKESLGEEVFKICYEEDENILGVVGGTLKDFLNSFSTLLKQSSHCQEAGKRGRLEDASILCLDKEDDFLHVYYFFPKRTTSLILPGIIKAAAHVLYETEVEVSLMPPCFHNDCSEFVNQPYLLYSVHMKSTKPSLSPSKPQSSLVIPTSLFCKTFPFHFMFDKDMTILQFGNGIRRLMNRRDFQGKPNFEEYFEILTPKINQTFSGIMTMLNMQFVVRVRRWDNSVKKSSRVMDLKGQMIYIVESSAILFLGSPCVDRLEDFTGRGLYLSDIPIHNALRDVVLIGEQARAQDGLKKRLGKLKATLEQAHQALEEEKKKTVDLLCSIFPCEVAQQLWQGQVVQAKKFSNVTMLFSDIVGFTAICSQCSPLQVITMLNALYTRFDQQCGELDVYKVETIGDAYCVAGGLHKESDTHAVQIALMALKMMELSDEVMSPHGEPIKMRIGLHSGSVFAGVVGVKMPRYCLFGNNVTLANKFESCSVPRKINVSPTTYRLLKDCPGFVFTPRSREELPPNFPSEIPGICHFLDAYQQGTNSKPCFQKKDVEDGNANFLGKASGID
Test: Activation of SGC in HEK293 cells assessed as cGMP production after 20 mins by LC-MS/MS analysis in presence of NO-donor DETA-NONOate
Assay type: cell-based
Details: not given

SMILES | EC50
CN(c1ccccc1)S(=O)(=O)c1cnc(-c2cc(-c3ccon3)n(Cc3ccccc3F)n2)nc1O | 730 nM
Cc1cccc(Cn2nc(-c3ncc(F)c(O)n3)cc2-c2ccon2)c1F | 240 nM
Oc1nc(-c2cc(-c3ncco3)n(Cc3ccccc3F)n2)ncc1F | 1500 nM
O=c1[nH]c(-c2cc(-c3ccon3)n(Cc3cccc(Cl)c3F)n2)ncc1F | 380 nM

Now from value to compound:

EC50 | SMILES
880 nM | Oc1nc(-c2cc(-c3ccon3)n(Cc3ccccc3)n2)ncc1F
240 nM | Nc1ccnc(-c2cc(-c3ccon3)n(Cc3ccccc3F)n2)n1
500 nM | N#Cc1cnc(-c2cc(-c3ccon3)n(Cc3ccccc3F)n2)nc1O
900 nM | CS(=O)(=O)c1cnc(-c2cc(-c3ccon3)n(Cc3ccccc3F)n2)nc1O

Tested on: not listed separately
Test: Terminal half-life in Sprague-Dawley rat at 1 mg/kg, iv by LC-MS/MS analysis
Assay type: ADME, organism-based
Details: in vivo, read-out: beta t1/2

half-life | SMILES
26 min | Nc1ccnc(-c2cc(-c3ccon3)n(Cc3ccccc3F)n2)n1

Tested on: not listed separately
Test: Oral bioavailability in Sprague-Dawley rat at 10 mg/kg by LC-MS/MS analysis
Assay type: ADME, organism-based
Details: in vivo

bioavailability | SMILES
53% | Nc1ccnc(-c2cc(-c3ccon3)n(Cc3ccccc3F)n2)n1

Target: T1, Kappa-type opioid receptor
Test: Binding affinity to KOP receptor (unknown origin)
Details: not given

IC50 | SMILES
1200 nM | Nc1ccnc(-c2cc(-c3ccon3)n(Cc3ccccc3F)n2)n1

Tested on: not listed separately
Test: Intrinsic clearance in human liver microsomes assessed per mg of protein at 2 uM after 10 to 30 mins by LC/MS/MS analysis in presence of NADPH
Assay type: ADME
Details: read-out: CLH

SMILES | microsomal CLint at 2 µM
N#Cc1cc(-c2ncc(F)c(=O)[nH]2)nn1Cc1ccccc1F | 7 µL/min/mg
Oc1nc(-c2cc(-c3cocn3)n(Cc3ccccc3F)n2)ncc1F | 4 µL/min/mg
CN(c1ccccc1)S(=O)(=O)c1cnc(-c2cc(-c3ccon3)n(Cc3ccccc3F)n2)nc1O | 179 µL/min/mg
O=C(Nc1cnc(-c2cc(-c3ccon3)n(Cc3ccccc3F)n2)nc1O)c1ccccc1 | 14 µL/min/mg
Cc1cccc(Cn2nc(-c3ncc(F)c(O)n3)cc2-c2ccon2)c1F | 8 µL/min/mg
Oc1nc(-c2cc(-c3ncco3)n(Cc3ccccc3F)n2)ncc1F | 42 µL/min/mg
O=c1[nH]c(-c2cc(-c3ccon3)n(Cc3cccc(Cl)c3F)n2)ncc1F | 5 µL/min/mg

The remaining lines, values ahead:

microsomal CLint at 2 µM | SMILES
11 µL/min/mg | Oc1nc(-c2cc(-c3ccon3)n(Cc3ccccc3)n2)ncc1F
10 µL/min/mg | Nc1ccnc(-c2cc(-c3ccon3)n(Cc3ccccc3F)n2)n1
12 µL/min/mg | Oc1ccnc(-c2cc(-c3ccon3)n(Cc3ccccc3F)n2)n1
8 µL/min/mg | CC(C)(O)c1cnc(-c2cc(-c3ccon3)n(Cc3ccccc3F)n2)nc1O
8 µL/min/mg | N#Cc1cnc(-c2cc(-c3ccon3)n(Cc3ccccc3F)n2)nc1O
15 µL/min/mg | CS(=O)(=O)c1cnc(-c2cc(-c3ccon3)n(Cc3ccccc3F)n2)nc1O
20 µL/min/mg | COc1nc(-c2cc(-c3ccon3)n(Cc3ccccc3F)n2)ncc1F
